Series [1] relates to bovine aorta endothelial cells. Kind of series: Endothelial cell migration assay. In kind it is cell-based. As to conditions: compared to the background level of migration (cells and media); 22±1 hour.
Method: Bovine aorta where obtained from a local abattoir and clamped at either end. Arterioles were tied off with string. The aorta was washed free of contaminating blood with 2% sucrose solution under sterile conditions. Trypsin was added in PBS buffer and incubated for 30 minutes. The endothelial cell suspension was mixed 1:1 with cell culture media (DMEM containing 20% foetal bovine serum, 2% glutamine and antibiotics). The cells were collected by centrifugation at 960×g for 10 minutes then suspended in media prior to culturing stock cell ampoules. After five cell passages the cells were frozen in 10% DMSO and stored in liquid nitrogen. […] The cells were then harvested for use.
BD Bioscience angiogenesis cell migration assay 24 well plates (BD Bioscience, Franklin Lakes, N.J., United States) were used as per the manufacturers instructions. The migration plate was kept at −18° C. until required. Briefly, bovine aorta endothelial cells were prepared in DMEM and HEPES pH 7.2 at 2×10^5 cells/mL. A 250 μL volume of the cell suspension (5×10^4 cells) were added to the top chamber. Immediately, 750 μL was added to each of the bottom wells using the sample port to the bottom wells. Samples were prepared by adding the glycoprotein extract to 1 mL of DMEM containing HEPES. The plate was incubated for 22±1 hour at 37° C., 5% CO2 atmosphere. […]
For series [2], the target named is T1, elastase I (Sus scrofa, UniProt P00772).
T1 construct: purchased Worthington Biochemical Corporation 2280
The series is described as follows: Chaperone activity: protection of elastase I from heat denaturation. Particulars: boiling water bath for 30 seconds. In kind it is biochemical. How it is done: Bovine crystallin fractions were tested for ability to protect the proteases elastase I, trypsin and chymotrypsin from heat denaturation. Briefly, the proteases were heated in a boiling water bath for 30 seconds in the presence or absence of the crystallin fractions.

Series [3] has as its system rat aortic ring. The series is described as follows: Rat aortic ring angiogenesis assay (Example 4.3). Particulars: for % of Control: microvessel growth; for activity in promoting angiogenesis: summary of second study. In kind it is cell-based, Lewis rat. How it is done:
Four separate studies were carried out to determine the angiogenic effect of crystallin preparations. Each sample was assayed in triplicate. A positive control (VEGF) and a vehicle control containing PBS was also run in triplicate. […] Preliminary statistical significance was assessed with an independent Student t-test at α<0.05. Graphical representation of averages +/− standard errors were determined.
The first study investigated the angiogenic potential of bovine fractions prepared by gel filtration analysis as described in Example 3.2. As described in that Example, the alpha fraction contained αA and αB crystallin, the β H fraction contained all β crystallins, the β L1 fractions contained a sub-fraction of beta crystallins and a high content of βB2 crystallin and beta B3 crystallin and the beta L2 fraction contained only βB2 crystallin and βA3 crystallin.
The second study investigated the angiogenic potential of purified crystallin proteins. Briefly, βB3 crystallin was prepared by heating (97-99° C. for 3 minutes, supernatant collected by centrifugation) and was essentially homogenous. Alpha A crystallin and αB crystallin samples were prepared by ion exchange chromatography as described above and were also essentially homogenous. The Wound Heal 1-3 preparations were also tested in this study.
The third study investigated the angiogenic potential of ovine crystallin proteins compared to their bovine equivalents. Both bovine and ovine crystallin proteins were purified essentially to homogeneity by RP. HPLC using a C4 column, as described below in Example 5. Homogeneity was confirmed by SDS-PAGE. The effect of elastase I treatment of βB2 crystallin was also investigated by comparing the angiogenic potential of intact βB2 crystallin (i.e. undigested) with elastase I digested βB2 crystallin. Elastase I treatment releases the N-terminal and C-terminal extensions of the crystallin protein leaving a globular protein that is monomeric.
In the final study, ovine βB2 crystallin was tested alone or in combination with indoleamine 2,3-dioxygenase (IDO) and ovine alpha B crystallin was tested alone or in combination with tryptophan dioxygenase (TDO)
Briefly, in each study, a single Lewis rat was euthanised and its aorta transferred to a 15 mL Falcon tube containing 10 mL of MCBD-131 medium and stored on ice. After transferring the aorta to a 92×17 mm petri dish containing 10 mL of ice cold MCDB-131, the outer fatty tissue was removed under an Olympus SZ-60 Dissecting microscope. This was undertaken with fibre optic lamp illumination. The aorta was then cut into sequential rings approximately 2 mm in size. Connective tissue was removed with micro scissors and forceps from the outside of the individual rings. Clean rings were stored in a separate petri dish in sterile MCDB-131 medium. Rings were pre-incubated overnight at 37° C. in an atmosphere of 97% air/3% CO2.
To prepare gel sandwiches, 75 mg of fibrinogen was added to 25 mL MCDB-131 medium and shaken gently on a rocker roller for 5 minutes. 3 ml of MCDB-131/fibrinogen solution was added to a 15 mL Falcon tube, followed by 10 μL of thrombin and quickly mixed. A 0.4 mL volume of this fibrinogen-thrombin solution was added to each well on a 24 well plate, 6 wells at a time. Aortic rings were then placed on the setting gel, pushed gently into the gel and left for 45 minutes. These steps were then repeated so each ring was covered with 0.4 mL of gel. Gels were left to set at room temperature. […] The plate was then placed in incubator (37° C., 97% air/3% CO2).
Culture plate were examined daily for signs of infection (fungal growth or yellowing of media) in the wells using an inverted microscope. The growth of microvessels from their perimeters was also observed. Digital photographs of each well were taken seven days after plating using a Pixera PVC-100C digital camera mounted on an OLYMPUS CK-12 microscope and stored on a Macintosh Computer. […]

Series [4] has as its system rat aortic ring. Kind of series: Rat aortic ring angiogenesis assay (Examples 1 and 2). In kind it is cell-based. How it is done:
Rat aorta were removed and cleaned of adhering fatty and connective tissues before being cut into rings of approximately 3 mm width. Fibrinogen was applied to the bottoms of wells of multi-well culture plates and allowed to gel by thrombin action. An aortic ring was then layered on the top of each gel and a further layer of fibrin placed on this. The fibrinogen was prepared in MCDB131 medium (Sigma, United States) supplemented with antibiotics. The double layer of fibrin was then overlaid with MCDB131 medium containing the test extracts. Control wells contained HBSS. Fumagillin (20 μg/mL) was assayed in triplicate as a negative control.
The gels were incubated at 37° C. in an atmosphere of 3% CO2/97% air. The rings were examined using an inverted microscope and the growth of microvessels from their perimeters is observed. Digital pictures were taken of these every 2 days and the extent of microvessel growth relative to the size of the ring was determined using National Institute of Health (NIH) Image software (National Institutes of Health (NIH), Rockville Pike, Bethesda, Md., United States, and the rate of growth of microvessels was then determined for each well. Each test extract was assayed in triplicate and the mean growth rate was calculated.
Additional analysis of several of the MLA008E2 fractions was performed using the rat aortic ring assay (in vitro angiogenesis) as described in Example 1.8 and a rat dorsal flap assay (wound healing assay).

T1 sequence (P00772 27-266): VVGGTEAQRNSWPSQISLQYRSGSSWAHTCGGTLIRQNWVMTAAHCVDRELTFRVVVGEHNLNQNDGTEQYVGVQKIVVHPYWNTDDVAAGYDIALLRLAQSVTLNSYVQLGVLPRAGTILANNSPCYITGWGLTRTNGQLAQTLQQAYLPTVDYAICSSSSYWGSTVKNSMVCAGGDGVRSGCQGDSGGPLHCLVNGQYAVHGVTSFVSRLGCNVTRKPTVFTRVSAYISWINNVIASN

As for `N[C@@H](Cc1c[nH]c2ccccc12)C(=O)O` [Tryptophan, tryptophan], the “endothelial cell migration (in words)” value in series [1] was “able to promote migration of the cells”.

In the case of “Bovine αA crystallin: bovine alpha A crystallin prepared by ion exchange chromatography, essentially homogenous”, the “chaperone activity: protection of elastase I from heat denaturation (in words)” value in series [2] is recorded as “able to protect elastase I from heat inactivation”. In series [3] (second study, 200 μg/mL), the “increase in microvessel growth (stimulatory)” value worked out at 8.26% and the “% of Control” value worked out at 108.26%. In series [3] (summary of second and third study), the “angiogenic activity (in words)” value is listed as “angiogenic”. In addition, the “activity in promoting angiogenesis” value in series [3] came to 108%.

Compound VEGF [reference compound] returned a Mean growth rate in series [4] (batch 2, 40 μg/ml) of 13.9 ± 0.2. The “Percentage stimulation or inhibition” value in series [4] (stimulation, batch 2, 40 μg/ml) was determined as 11.1% stimulation. Further, in series [3] (first study, 30 μg/ml, not statistically significant), the “inhibition of microvessel growth” value is reported as 15.08%. For the same compound, the “% of Control” value in series [3] (forth study, 50 μg/mL) stood at 113.7%; in series [3] (second study, 50 μg/mL), 107.08%; in series [3] (third study, 50 μg/mL), 113.7%. Further, the “angiogenic effect on microvessel growth (in words)” value in series [3] (second study, VEGF 50 μg/mL, test samples 200 μg/mL) was “slight stimulation”. The “activity in promoting angiogenesis” value in series [3] (50 ng/mL) was 107%.

Turning to `CO[C@@H]1[C@H](OC(=O)/C=C/C=C/C=C/C=C/C(=O)O)CC[C@]2(CO2)[C@H]1[C@@]1(C)O[C@@H]1CC=C(C)C` [Fumagillin], the “Rate of microvessel growth” value in series [4] (20 μg/ml) was 9.462 ± 1.67. Also, the Mean growth rate in series [4] (batch 1, 20 μg/ml) is listed as 9.5 ± 1.7; in series [4] (batch 2, 40 μg/ml) it was 5.4 ± 1.6. The compound further yielded a Stimulation/inhibition in series [4] (inhibition vs Control (HBSS), 20 μg/ml) of 24.07% inhibition. Also, the “Percentage stimulation or inhibition” value in series [4] (inhibition, batch 1, 20 μg/ml) came to 24.1% inhibition; in series [4] (inhibition, batch 2, 40 μg/ml), 57.7% inhibition.

For the compound “Indoleamine 2,3-dioxygenase IDO: tryptophan hydrolyzing enzyme”, in series [3] (forth study, 100 μg/mL), the “angiogenic activity (in words)” value was “stimulatory” and the “% of Control” value is given as 116.4%.

The values are drawn from patent US8404644B2, “Agents with angiogenic and wound healing activity” (Meat & Livestock Australia Limited, priority 2007, dated 2013).
